Reference: PMC7179167 (Molecules, 2020)
In brackets after ≈: the same amount, converted by molar mass. Like-named read-outs stand apart in the source and are kept apart here.

Columns and labels:
p53 = p53 ELISA in HCT-116 cells; assay type: cell-based, human; details: HCT-116 cells treated at IC50 concentration; control 1.68 ± 0.06; mean ± SD
From the text: (§1) The promising antiproliferative results reported for compounds 11a, 11b, 12a, 12b and 13c against cell lines under study have prompted us to investigate the mechanism of cell death induced by these compounds. Apoptosis induction was examined in both MCF-7 and HCT-116 cancer cells by assaying the level of its key protein markers, namely: proapoptotic (p53, Bcl 2-associated X, Bax and caspases3) and antiapoptotic (B-cell lymphoma-2, Bcl-2). MCF-7 and HCT-116 cells undergoing apoptosis was detected by use of the ELISA technique. Protein marker levels were quantified according to Bradford assay.
(§2) Briefly, cells ([…] and HCT) were seeded at a concentration of 1.2–1.8 × 10^3 cells/well in 6-well plates. After 48-h treatment, the collected cells were lysed and centrifuged at 10,000 rpm for 20 min at 4 °C. The protein concentration was measured in the supernatant by Bradford protein assay. Volume containing […] of total protein was incubated with […] of caspase substrate in […] of the reaction buffer at 37 °C for 1 h in the dark. Caspase-3 activity was determined by a microplate reader at 405 nm using a caspase-3 colorimetric assay kit (Abcam) according to the manufacturer’s instructions. In vitro protein level quantitative measurement of apoptotic marker p53, Bcl-2-associated X (Bax) and antiapoptotic marker B-cell lymphoma-2 (Bcl-2) in cell lysate were assessed by Enzyme-Linked Immunosorbent Assay Simple Step ELISA® (ab199080, ab119506 and ab171571; Abcam) according to the manufacturer’s instructions.

B. subtilis (ATCC 6633) = assay: Disk diffusion antimicrobial test, B. subtilis; assay type: cell-based, Bacillus subtilis; details: Bacillus subtilis, ATCC6633, Gram-positive, 20 mg per disc (title), concentration 20 µg (footnote)
Experimental: (§3) The newly synthesized compounds were chosen to be evaluated in vitro towards a variety of pathogenic microorganisms; Gram-positive bacteria: S. aureus (ATCC 6538) and B. subtilis (ATCC 6633); Gram-negative bacteria: P. areuginosa (ATCC 27853) and E. coli (DSMZ 1058); yeast: C. albicans (ATCC 10231) and S. cerevisiae (ATCC 9080) and fungi: A. niger (NRRL A-326) using the disk diffusion method at a single dose of 20 µl. The results are shown in Table 1 as the growth inhibition zone (mm).
(§4) The antimicrobial activity of target compounds were evaluated to be in vitro against a variety of pathogenic microorganisms, namely Staphylococcus aureus (ATCC 6538), Bacillus subtilis (ATCC 6633) (Gram-positive bacteria), Pseudomonas areuginosa (ATCC 27853), Escherichia coli (DSMZ 1058) (Gram-negative bacteria), Candida albicans (ATCC 10231), Saccharomyces cerevisiae (ATCC 9080) (Yeast) and Aspergillus niger (NRRL A-326) (Fungi) using the disk diffusion method at a single dose of 20 µg. The microorganisms were served and obtained from the Microbial Biotechnology Department, National Research Center, Giza, Egypt. Amphotericin, amoxicillin and ciprofloxacin were used as reference drugs (Oxoid™ Disks). The tested compounds 11a–c, 12a–c, 13a–i, 14a–i and 15a,b were dissolved in dimethylsulphoxide (DMSO) at a concentration of 1 mg/mL. Aliquots of 20 μl were soaked on filter paper discs (6 mm) and dried at room temperature under sterilized conditions. The paper discs were placed on inoculated agar plats and then incubated for 24 h at 37 °C for bacterial strains and after 48–72 h incubation at 30 °C for fungi. Both bacterial and yeast strains were grown on nutrient agar medium (g/l): beef extract, 3; peptone, 10 and agar, 20 at pH of 7.2. The fungal strain was grown on Czapek-Dox medium (g/l): sucrose, 30; NaNO3, 3; MgSO4.7H2O, 0.5l; KCl, 0.5; FeSO4, 0.01; K2HPO4, 1 and agar, 20 at pH of 6.0.

Bax = Bax ELISA in HCT-116 cells; assay type: cell-based, human; details: HCT-116 cells treated at IC50 concentration; control 118.54 ± 0.83; mean ± SD
From the text: as §1, §2

[1] = test system: MCF-7 (human breast cancer); assay: MTT cytotoxicity assay, MCF-7; assay type: cell-based; details: for inhibition at 100 µg/mL: MCF7, 100 µg/ml, 48 h, read-out: Growth Inhibition (%) MCF-7; for IC50: MCF7, 48 h post-treatment
Experimental: (§5) MCF-7 (human breast cancer), HCT-116 (human colon cancer) and HepG2 (human liver cancer) cell lines were obtained from Karolinska Institute, Stockholm, Sweden. All cells were maintained in RPMI 1640 medium. The media were supplemented with 10% heat-inactivated fetal bovine serum plus 1% antibiotic-antimycoticmixture (10,000 U/mL of potassium penicillin, 10,000 μg/mL of streptomycin sulfate, 25 μg/mL of amphotericin B and 1% of L glutamine (Biowest, USA)). BJ-1 of a human skin fibroblast derived from normal foreskin was obtained from ATCC® CRL-2522™ as a frozen ampoule with about 1 × 10^6 cells per 1 ml volume. BJ-1 was maintained in MEM with 2 mM of L-glutamine and Earle’s salts medium.
(§6) Cell viability was studied using the MTT 3-(4,5-dimethylthiazol-2-yl)-2,5-diphenyl-tetrazolium bromide (Bio Basic Canada Inc. Toronto, Canada) assay [33]. The steps were executed in a sterile laminar air flow cabinet biosafety class II level (Baker, SG403INT; Sanford, ME, USA). All incubations were carried out at 37 °C in a 5% CO2 incubator under a humidified atmosphere of 95% (Sheldon, TC2323; Cornelius, OR, USA). Cells were seeded into 96-well microtiter plastic plates at a concentration of (10^4 cells/well) and allowed to adhere for 24 h. The medium was aspirated and then added to the cells with the test compounds 11a–c, 12a–c, 13a–i, 14a–i and 15a,b at a single dose of 100 μg/mL in DMSO. After incubation of the medium for 48 h, 40 μL of MTT salt (2.5 μg/mL) was added to each well and then incubated for an additional 4 h. To stop the reaction and dissolve any formed formazan crystals, 200 μL of 10% sodium dodecyl sulfate (SDS) were added to each well and incubated overnight at 37 °C. The amount of formazan product was measured at 595 nm with a reference wavelength of 690 nm as a background using a microplate reader (Bio-Rad Laboratories, model 3350, California, USA). For the untreated cells (negative control), the medium was added instead of the tested compounds. […] Dimethylsulfoxide (DMSO) was the vehicle used for dissolution of the testing compound, and its final concentration on the cells was less than 0.2%. At the same dilution, the solvent concentration was the same for all drugs and between the control and drug treatments.

[2] = DPPH free radical scavenging assay; assay type: biochemical; details: concentration of 20µg/l, mean ± SD of three experiments
Method in brief: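 Compound DMSO stock (1 mg/mL) added to fresh DPPH in DMSO (20 mg/L), vortexed 1 min, kept dark for 15–60 min. Absorbance at 517 nm; % scavenging = (A control − A sample)/A control × 100; triplicates averaged. Ascorbic acid served as reference.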

[3] = test system: P. aeruginosa (ATCC 27853); assay: Disk diffusion antimicrobial test, P. aeruginosa; assay type: cell-based, Pseudomonas areuginosa; details: Pseudomonas aeruginosa, ATCC27853, Gram-negative, 20 mg per disc (title), concentration 20 µg (footnote)
Experimental: as §3, §4

[4] = test system: normal skin fibroblast cells (BJ-1); assay: MTT cytotoxicity assay, normal skin fibroblast BJ-1; assay type: cell-based; details: Homo sapiens, 48 h, read-out: Growth Inhibition (%) BJ-1
Experimental: as §5, §6

C. albicans (ATCC 10231) = assay: Disk diffusion antimicrobial test, C. albicans; assay type: cell-based, Candida albicans; details: Candida albicans, ATCC10231, disk diffusion; yeast; 20 mg per disc (title), concentration 20 µg (footnote)
Method in brief: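 Disk diffusion: 6 mm paper discs soaked with 20 μl compound in DMSO at 1 mg/mL, placed on inoculated nutrient agar (pH 7.2). Bacteria incubated 24 h at 37 °C, yeast 48–72 h at 30 °C; growth inhibition zone measured in mm.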

caspase-3 = assay: Caspase-3 colorimetric assay in HCT-116 cells; assay type: cell-based, human; details: HCT-116 cells treated at IC50 concentration; control 13.60 ± 2.45; mean ± SD
From the text: as §1, §2

[5] = 15 min, read-out: Scavenging Activity (%) on DPPH radicals at 15 min
[6] = 30 min, read-out: Scavenging Activity (%) on DPPH radicals at 30 min
[7] = 45 min, read-out: Scavenging Activity (%) on DPPH radicals at 45 min
[8] = 60 min, read-out: Scavenging Activity (%) on DPPH radicals at 60 min

SMILES	p53 (pg/50 mg Protein) (p53)	zone of inhibition at 20 µg/disc (B. subtilis (ATCC 6633))	Bax (pg/50 mg Protein) (Bax)	inhibition at 100 µg/mL [1]	IC50 [1]	inhibition [2, 5]	inhibition [2, 6]	inhibition [2, 7]	inhibition [2, 8]	zone of inhibition at 20 µg/disc [3]	inhibition at 100 µg/mL [4]	zone of inhibition at 20 µg/disc (C. albicans (ATCC 10231))	Caspase-3 Activity % (caspase-3)
COc1cc2occc2c(OC)c1C1=NNC2(C1)C(=O)Nc1ccccc12 (stereo not shown) [Compound 11b, 5’-(4,6-Dimethoxy-benzofuran-5-yl)-2’,4’-dihydrospiro(indoline-3,3’-pyrazol)-2-one]	3.25 ± 0.15 pg/50 mg Protein	12 mm	119.14 ± 1.65 pg/50 mg Protein	92.3%	19.4 µg/mL (≈ 53.4 µM)	9.6 ± 1.77%	14.3 ± 1.52%	20.4 ± 1.65%	30.8 ± 2.04%	12 mm	10.1%	18 mm	14.04 ± 0.54%
COc1c(C2=NNC3(C2)C(=O)Nc2ccccc23)c(O)c(OC)c2occc12 (stereo not shown) [Compound 12a, 5’-(6-Hydroxy-4,7-dimethoxy-benzofuran-5-yl)-2’,4’-dihydrospiro(indoline-3,3’-pyrazol)-2-one]	23.11 ± 1.22 pg/50 mg Protein	16 mm	124.56 ± 0.95 pg/50 mg Protein	93.6%	20.2 µg/mL (≈ 53.2 µM)	56.4 ± 1.08%	67.1 ± 1.45%	76.9 ± 1.51%	81.4 ± 1.37%	18 mm	9.1%	12 mm	17.43 ± 0.58%
COc1c(C2=NNC3(C2)C(=O)Nc2ccccc23)c(OC)c2ccoc2c1OC (stereo not shown) [Compound 12b, 5’-(4,6,7-Trimethoxy-benzofuran-5-yl)-2’,4’-dihydrospiro(indoline-3,3’-pyrazol)-2-one]	48.07 ± 1.94 pg/50 mg Protein	18 mm	191.07 ± 1.95 pg/50 mg Protein	97.4%	16.7 µg/mL (≈ 42.5 µM)	17.3 ± 1.53%	23.5 ± 1.64%	30.6 ± 1.49%	40.6 ± 1.46%	24 mm	5%	10 mm	33.12 ± 1.37%
COc1c(C2=NNC3(C2)C(=O)Nc2ccccc23)c(O)cc2occc12 (stereo not shown) [Compound 11a, 5’-(6-Hydroxy-4-methoxy-benzofuran-5-yl)-2’,4’-dihydrospiro(indoline-3,3’-pyrazol)-2-one]	16.2 ± 0.56 pg/50 mg Protein	12 mm	159.26 ± 0.96 pg/50 mg Protein	94.3%	21.1 µg/mL (≈ 60.4 µM)	6.86 ± 1.17%	10.3 ± 1.37%	17.7 ± 1.28%	26.9 ± 1.56%	8 mm	6.2%	20 mm	19.12 ± 0.89%
